Measured values from patent publication US20240226041A1, “METHODS AND COMPOSITIONS FOR TREATMENT OF NEUROPATHIC PAIN USING STAT3 INHIBITORS” (priority 2021, published 2024).

Experiments:
STAT3βtr = biological target: T1, STAT3βtr (Homo sapiens, UniProt P40763); experiment: STAT3 alkylation study, targeted LC-MS/MS (MRM, QTrap 5500) of tryptic digests; type: biochemical; settings: for number of STAT3βtr peptides alkylated: natively folded STAT3βtr, conditions optimal for alkylation, LC-MS/MS of tryptic digest
T1 construct: STAT3 (127-722) cDNA was cloned into a pET15b vector; made in house; host or cells: E. coli BL21 (DE), pET15b
Text: To examine if this was a possibility, recombinant STAT3 was generated post-translationally unmodified in bacteria using a cDNA construct in which the domain containing the N-terminal oligomerization domain was deleted (STAT3βtr); this domain is not necessary for native folding of the core domains of STAT3 (CCD, DBD, linker domain, and SH2 domain) and its removal markedly improves recombinant STAT3 protein solubility. STAT3βtr contains 11 Cys residues. To determine how many of these Cys residues are available to be alkylated when soluble protein is natively folded, we incubated STAT3βtr with two protein alkylating agents, iodoacetamide and N-ethylmaleimide (NEM) under conditions optimal for alkylation (FIG. 11A-11B). […] The identity of the peptides were confirmed by performing full MS/MS spectra on the detected transitions. […] Five of the peptides contained a single alkylated Cys, while one of the peptides contained two alkylated Cys residues.
Expression and purification of recombinant STAT3. STAT3 (127-722) cDNA was cloned into a pET15b vector and transformed in BL21 (DE) (Life Technologies, Inc. Woburn, MA) Expression of the recombinant protein was inducing by 0.5 mM IPTG, at 20° C. for 5 hr. The recombinant STAT3 protein was purified by ammonium sulfate precipitation followed by an ion exchange step with HiTrap Q columns (GE Healthcare Bio-Sciences, Uppsala Sweden) and size exclusion chromatography to achieve purity of over 98%.
STAT3 alkylation studies. Purified recombinant core fragment of STAT3β protein in ammonium bicarbonate buffer (10 μM) was mixed with each compound at a final concentration of 100 μM. The protein mixture was then incubated at 37° C. overnight. Samples were reduced with 5 mM DTT at 37 °C for one hour and further alkylated with iodoacetamide (15 mM) for 30 minutes at RT in the dark, followed by digestion with trypsin gold in a dry incubator at 37° C. overnight. Formic acid was added the next day to 5% and each protein sample was diluted in 5 mM ammonium acetate containing 0.5% formic acid immediately prior to analysis by Targeted Mass Spectrometry Multiple Reaction Monitoring (MRM).
LC-MS/MS. A QTRAP 5500 Sciex hybrid quadrupole-linear ion trap system with a TurboIonSpray ion source in positive mode and equipped with a Sciex LC Exion liquid chromatography system was used to analyze tryptic digests of STAT3 protein samples treated with STAT3 inhibitors. Fractionation of the samples was done using a Waters Symmetry C18 column (100 Å, 3.5 μm, 4.6 mm×150 mm) and a 30 min linear gradient of acetonitrile with 0.1% formic acid at a flow rate of 300 uL/min. A transition list of cysteine-containing peptides with expected drug-cysteine adducts were generated in Skyline software and exported to the QTRAP mass spectrometer to developed acquisition methods. Resultant raw data files generated in the QTRAP were imported back into Skyline for analysis and additional processing.

DU-145 cells = experiment: Seahorse XF Cell Mito Stress Test, oxygen consumption rate (OCR); type: cell-based, human
Protocol: FIGS. 1A-1C show the effects of STAT3 inhibitors on mitochondrial function. DU-145 cells were treated with the indicated STAT3 inhibitors at 30 μM for 2 Hrs.
DU-145 cells were treated with STAT3 inhibitors at 10-30 μM for 2 Hrs. Data are representative of 4 or more independent experiments.
ATP production, maximal respiration, proton leak, and spare respiratory capacity. […] Similarly.
Mitochondrial assays. DU-145 cells (2.5×10^4) were seeded per well in a XF24 plate and incubated at 37° C./5% CO2 in complete RPMI medium. After 12 Hrs complete medium was replaced with nutrient depleted four-day culture media: conditioned media (CM) and incubated for 4 Hrs. Cells were then treated for another 2 Hrs with STAT3 inhibitors prior to analysis using a Seahorse XF24 Analyzer. The Oxygen Consumption Rate (OCR) was measured in DMEM XF base medium containing 10 mM glucose and 2 mM glutamine and 1 mM pyruvate, before and after the sequential injection of oligomycin, FCCP and rotenone/antimycin A to final concentrations of 1 μM, 1 μM and 0.5 μM respectively. Basal and maximal respiration values were estimate by subtraction of OCR value after treatment of cells with rotenone and antimycin A (which reflects non-mitochondrial respiration) from OCR values in cells treated with oligomycin and FCCP respectively.

[1] = Glutathione reaction study (UV-HPLC stability with GSH); type: physicochemical
Protocol: The AUC of each compound measured at the times indicated by UV-HPLC and expressed as percent of the starting AUC of the peaks. Data are representative of four independently performed experiments.
Each reaction mixture was sampled at time 0 and every 5 minutes for 50 minutes; all samples were analyzed by HPLC. The amount of unreacted inhibitor was determined by measuring the area under the curve (AUC) and plotting this value as a percentage of the starting AUC as a function of time (FIG. 3). […] In contrast, there was no loss of TTI-101 in the presence of GSH.
Glutathione reaction studies. STAT3 inhibitors (10 ul of 10 mM stock in DMSO) were spiked into reaction buffer [50 mM HEPES pH7.5 containing 10 mM reduced glutathione (GSH)] the samples were mixed thoroughly and placed in an autosampler set at 20° C. The reactions were monitored by high performance liquid chromatography (HPLC) using an Exion LC Sciex unit equipped with a UV detector. The stationary phase used was a C18 Synergi™ 4 μm Fusion-RP 80 Å LC column (50×2 mm); the mobile phase was water (A) and acetonitrile (B). The elution process consisted of an isocratic step with 20% mobile phase B, followed by 80% B, for 2 minutes. The flow rate was maintained at 0.5 mL/min during the run. Measurements were conducted at intervals of 5 minutes for a period of 55 minutes total. The presence of the STAT3 inhibitors were quantified by calculating the area under the curves (AUCs) of the compound peaks at 260-295 nm.

STAT3 = biological target: T2, STAT3 (Homo sapiens, UniProt P40763); experiment: STAT3 alkylation study, high resolution LC-MS/MS for unknown chemical adducts; type: biochemical; settings: vs. STAT3 incubated with DMSO
T2 construct: STAT3 (127-722) cDNA was cloned into a pET15b vector; made in house; host or cells: E. coli BL21 (DE), pET15b
Protocol: FIGS. 11A-11C show alkylation of STAT3βtr by iodoacetamide and NEM. […] The dotted line indicates the cutoff for a significant Z-score.
STAT3 alkylation studies. Purified recombinant core fragment of STAT3β protein in ammonium bicarbonate buffer (10 μM) was mixed with each compound at a final concentration of 100 μM. The protein mixture was then incubated at 37° C. overnight. Samples were reduced with 5 mM DTT at 37 °C for one hour and further alkylated with iodoacetamide (15 mM) for 30 minutes at RT in the dark, followed by digestion with trypsin gold in a dry incubator at 37° C. overnight. […]
High resolution LC/MS. An aliquot of the tryptic digests of STAT3 proteins treated with DMSO (control) and those treated with Stattic and TTI101 were analyzed by LC-MS/MS on an Ultimate 3000 RSLC-Nano chromatograph interfaced to an Orbitrap Fusion high-resolution mass spectrometer (Thermo Scientific, Waltham MA). All MS/MS data were analyzed using Sequest-HT (Thermo Scientific). […] To access for potential unknown modifications, the data was analyzed in MaxQuant using the dependent peptide search option (Tyanova, Temu & Cox, 2016). All peptides output list was analyzed by comparing Stattic, TTI101 and TTI101ox with DMSO treated samples as described in (Antinori, Michelot, Lescuyer, Müller & Acosta-Martin, 2019).

male C57BL/6 mice [2] = experiment: Cisplatin model of chemotherapy-induced peripheral neuropathy (CIPN), von Frey mechanical allodynia; type: in vivo, mouse; settings: two cycles of 5 daily doses of 2.3 mg/kg followed by 5 days rest
Protocol: Data were analyzed by two-way ANOVA repeated measures. Time: P<0.001; Group: P<0.001; Interaction P<0.001. **P<0.01 Tukey multiple comparison test. Data are from a representative experiment out of two with similar results.
Male C57/B16 mice (n=4 per group) were treated with cisplatin (two rounds of 5 daily doses of 2.3 mg/kg i.p. followed by 5 days of rest). […] Data were analyzed by two-way ANOVA repeated measures. Time: P<0.001; Group: P<0.001; Interaction P<0.01. **P<0.01 Tukey multiple comparison test.
Peripheral neuropathy has been observed with several small-molecule STAT3 inhibitors in clinical-stage development (Bendell et al., 2014; Genini et al., 2017; Ogura et al., 2015). […] This model was selected because it was shown previously that it is mediated by mitochondrial damage in the peripheral nervous system (Krukowski et al., 2017; Maj, Ma, Krukowski, Kavelaars & Heijnen, 2017). […] (FIG. 12).
Pain measurements and chemotherapy-induced peripheral neuropathy (CIPN).

DRG transcriptome = experiment: RNA-seq and IPA analysis of dorsal root ganglia of cisplatin-treated mice; type: in vivo, mouse; settings: cisplatin vs. PBS
Text: Expression of 1,973 genes was changed in response to cisplatin when compared to the PBS mice (PBS vs. Cis; n=3 male mice per group). […] A cutoff of (−0.2<log 2 Fold Change <0.2) and p=0.1 was used for the analysis. […] Gray indicates effect cannot be predicted.
The mechanistic network of four regulators identified STAT3 as an intermediate regulator. […] For example, for the TP53 network, 14 regulators were part of the mechanistic network which together influence expression of 481 genes and out of these 481 genes, 64 target genes are controlled by STAT3.
RNA-seq and transcriptome analysis of dorsal root ganglion (DRG). […] Total RNA was isolated with the RNeasy MinElute Cleanup Kit (Qiagen, Hilden, Germany). Libraries were prepared with the Stranded mRNA-Seq kit (Kapa Biosystems, Wilmington, MA) following the manufacturer's guidelines. Stranded-mRNA seq was performed with a HiSeq4000 Sequencer (Illumina, San Diego, CA) with 76nt PE format by the RNA Sequencing Core at MD Anderson Cancer Center. Data analysis was performed as previously described (Chiu et al., 2018; Ma et al., 2019). Briefly, expression data of three samples per group were analyzed in R using bioconductor packages. STAR was used for alignment of paired-end reads to the mm10 version of the mouse reference genome; feature Counts was used to assign mapped sequence reads to genomic features, and DESeq2 was used to identify differentially expressed genes (padj<0.05). Quality check of raw and aligned reads was performed with FastQC and Qualimap. Next, we used Ingenuity Pathway Analysis (IPA; Qiagen Inc., https://www.qiagenbioinformatics.com/products/ingenuity-pathway-analysis/) for analysis of the canonical pathways implicated by cisplatin-induced transcriptome changes in DRG.

male C57BL/6 mice [3] = settings: Krukowski et al., 2017; cited from earlier work

T1 sequence (P40763 127-722 isoform P40763-3): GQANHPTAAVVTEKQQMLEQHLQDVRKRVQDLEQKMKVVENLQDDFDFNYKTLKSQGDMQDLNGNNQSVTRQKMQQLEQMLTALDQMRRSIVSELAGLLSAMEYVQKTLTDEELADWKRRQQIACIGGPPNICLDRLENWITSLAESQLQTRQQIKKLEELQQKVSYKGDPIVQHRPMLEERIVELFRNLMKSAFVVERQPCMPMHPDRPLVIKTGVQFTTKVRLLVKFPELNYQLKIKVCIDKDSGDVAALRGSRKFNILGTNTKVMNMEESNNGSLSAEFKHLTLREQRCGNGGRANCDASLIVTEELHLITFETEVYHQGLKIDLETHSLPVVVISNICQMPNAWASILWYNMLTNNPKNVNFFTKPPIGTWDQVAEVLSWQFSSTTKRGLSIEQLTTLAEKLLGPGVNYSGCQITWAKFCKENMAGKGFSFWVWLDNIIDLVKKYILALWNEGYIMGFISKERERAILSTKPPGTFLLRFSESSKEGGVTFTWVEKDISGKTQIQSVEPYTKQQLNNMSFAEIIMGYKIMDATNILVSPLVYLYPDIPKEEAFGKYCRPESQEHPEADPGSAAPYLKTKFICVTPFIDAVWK
T2 sequence (P40763 127-722 isoform P40763-3): as above

Compound: CCN1C(=O)C=CC1=O [NEM, N-ethylmaleimide]
- number of STAT3βtr peptides alkylated (STAT3βtr): 6 peptides

Compound: C[C@H]1COC2=C1C(=O)C(=O)c1c2ccc2c1CCCC2(C)C [cryptotanshinone]
- reduction in ATP level production (DU-145 cells; 30 μM): 50%

Compound: O=[N+]([O-])c1ccc2c(c1)S(=O)(=O)C=C2 [Stattic]
- OCR curves compared to DMSO control (DU-145 cells; 2 Hrs, 10 and 30 μM (3-fold and 10-fold TTI-101 IC50)): did not consistently alter the OCR curves
- unreacted inhibitor level (AUC) as percent of baseline in the presence of GSH ([1]; 100 μM in 50 mM HEPES pH 7.5, 10 mM GSH, within 5 minutes): < 10%
- inhibitor level in the absence of GSH ([1]; without GSH): remaining constant
- adducts on Cys containing STAT3 peptides (alkylation), targeted LC-MS/MS (STAT3βtr; STAT3βtr 10 μM, compound 100 μM, 37° C. overnight): covalent modification of STAT3
- alkylated peptides, targeted and untargeted LC-MS/MS (STAT3βtr; STAT3βtr tryptic digests, Qtrap 5500 and Orbitrap, FIGS. 4A-4C (Stattic)): eight
- chemical adducts / mass shifts of STAT3 peptides, untargeted high resolution LC-MS/MS (STAT3): adducts were detected

Compound: NC(=O)CI [iodoacetamide]
- number of STAT3βtr peptides alkylated (STAT3βtr): 6 peptides

Compound: N.N.[Cl][Pt][Cl] [cisplatin, reference compound]
- induction of mechanical allodynia (male C57BL/6 mice [2]): induces mechanical allodynia
- VEGF signaling (IPA comparison analysis) (DRG transcriptome): predicted activation of VEGF signaling
- genes down in DRG (DRG transcriptome): 675 genes
- genes up in DRG (DRG transcriptome): 1,298 genes
- genes with changed expression in DRG (DRG transcriptome): 1,973 genes
- duration of induced mechanical allodynia (male C57BL/6 mice [3]): at least 75 days
